On the set-up of series [1]: method as in Rambousek et al., 2011. Particulars: after bilateral NMDA-induced lesions to the hippocampus; ref Rambousek et al., 2011; cited from earlier work.
On the set-up of series [2]: method as in Holubova et al., 2014. Conditions: ref Holubova et al., 2014; cited from earlier work.
The nature of series [3]: Plasma stability, rat plasma. Particulars: rat plasma, 8 h, 37°C; read-out: Plasma stability (% remaining after 8 h), Rat. The series is classed as in vitro ADME.
On the set-up of series [4]: method as in Rambousek et al., 2011. Conditions: ref Rambousek et al., 2011, cited from earlier work.
Series [5] concerns HepG2 cells. Description: ROS induction (CM-H2DCFDA). Type of series: cell-based. Particulars: Homo sapiens, HepG2, 72 h, read-out: ROS induction EC50. The protocol: (§1) (A) Hepatotoxicity provoked by compound 4 was assessed after 72 h incubation of HepG2 cells in low glucose medium (5 mM) in the presence of compound 4 (0.25–100 μM). (B) Mitochondrial toxicity was determined after 24 h incubation of HepG2 cells in either high glucose medium (25 mM) or galactose medium (10 mM) in the presence of compound 4 (2.5–150 μM). Cell viabilities were recorded in triplicates in three independent experiments and expressed as percentage of vehicle control ± SD and IC50 values were determined by GraphPad Prism software using following equation: Y = Bottom + (Top–Bottom)/(1 + 10ˆ((LogIC50-X)^∗HillSlope)), where IC50 is the concentration of compound 4 that inhibits cell viability half way between Bottom and Top plateaus, X is compound 4 concentration and HillSlope describes the steepness of the family of curves. […] (C) Concentration-dependent effect on ROS level. HepG2 cells were treated with compound 4 (0.25–100 μM) for 72 h, and then the intracellular level of total ROS in relative fluorescence units (RFU) was detected. The data are presented as the mean ± SD for at least three independent experiments and each experiment was carried out in triplicate. Final concentration of DMSO in samples was 1%. […] Single asterisks (^∗) indicate a significant difference (P < 0.05) compared to 1% DMSO control (one-way ANOVA with Dunnett’s post-test).
The effect of neurosteroids on oxidative stress was determined using general oxidative stress indicator CM-H2DCFDA (Thermo Fisher Scientific, Waltham, MA, United States) according to the manufacturer’s instructions. Briefly HepG2 cells were seeded in a 96-well plate at a density of 13,500 cells per well. After 24 h, the tested neurosteroids were added to the culture media and incubated for 72 h. Subsequently, cells were washed with HBSS, treated with 100 μL of 1 μM CM-H2DCF-DA solution in HBSS and incubated for 1 h in the dark at 37°C. Finally, cells were washed three times with HBSS and the fluorescence was measured using 495 excitation and 527 emission in fluorescence microplate reader (Cytation 3, Winooski, VT, United States). IC50 index values were determined by GraphPad Prism version 5.00 for Windows (GraphPad Software, La Jolla, CA, United States).

The nature of series [6]: Plasma stability, human plasma. Type of series: in vitro ADME. Particulars: human plasma, 8 h, 37°C; read-out: Plasma stability (% remaining after 8 h), Human. The method, then: Then, 37.8 μL of stock solution was added to 1400 μL of human plasma, maintained at 37°C. Aliquots (50 μL) withdrawn at 0, 1, 4, 8, and 24 h were analyzed by HPLC. […] The supernatant was transferred to an autosampler vial and 1 μL was injected onto LC-MS system. The samples were analyzed with an Agilent 1260 HPLC (Agilent Technologies) coupled to ESI-TOF Agilent 6530 (Agilent Technologies) with Agilent Jet Stream Technology. Samples were separated on a Waters ACQUITY UPLC CSH Phenyl-Hexyl (100 × 2.1, 130 Å, 1.7 μm) at a flow rate 0.3 ml/min. […] The mass spectrometry instrument was operated in a negative ion mode with a voltage of +3.00 kV applied to the capillary. The temperature, the flow rate of the nitrogen drying gas, the pressure of the nitrogen nebulizing gas, and the flow rate of the sheath gas were set at 325°C, 10 l/min, 40 psi, 390°C, and 11 l/min, respectively. Results are represented as a percentage of a compound remaining in spiked human plasma.

Series [7] relates to HepG2 cells. Description: Mitotoxicity, XTT viability in glucose vs galactose medium. Particulars: for IC50: Homo sapiens, HepG2, 24 h. The method, then: as §1
(§2) HepG2 cells (ATCC®, United Kingdom) were grown in complete Minimal Essential Medium (EMEM) (5.5 mM glucose) medium, supplemented with 10% (v/v) fetal calf serum, 200 μg/mL of streptomycin, 200 U/mL of penicillin G and 4 mM glutamine. They were cultured under a humidified atmosphere containing 5% CO2 at 37°C.
(§3) The cytotoxicity of the tested compounds was assessed with use of XTT cell proliferation kit II (Roche Diagnostics GmbH, Mannheim, Germany) according to the manufacturer’s instructions. Briefly HepG2 cells were seeded in a 96-well plate at a density of 22,000 cells per well. After 24 h, the tested neurosteroids in a concentration range from 0.5 to 200 μM were added to the culture media and incubated for 72 h before the XTT dye was added. Mitochondrial toxicity was assessed in HepG2 cells using glucose and galactose conditioned media and XTT assay as a read out for cell viability. In brief, cells were seeded onto 96 well, clear bottom tissue culture plates at a density of 22,000 cells/well and left overnight to attach. Six hours prior to the neurosteroids treatment the media was replaced with 100 μL DMEM media containing either glucose (25 mM glucose; 1 mM pyruvate; 2 mM glutamine, 10% FBS) or galactose (10 mM galactose, 1 mM pyruvate, 6 mM glutamine, 10% FBS). After that, the tested neurosteroids in a concentration range from 0.5 to 200 μM were added in the fresh appropriate assay medium (glucose or galactose) and incubated for 24 h before the XTT dye was added. The XTT absorbance was recorded at 495 nm after 1 h incubation with the dye. Compounds were dissolved in DMSO to produce the stock solutions at the concentration of 10 mM, with exception of PAG, 1, 6 (5 mM), and 11 (2.5 mM). Results were expressed as percentages of change in viability compared to appropriate DMSO control. IC50 values were determined by GraphPad Prism version 5.00 for Windows (GraphPad Software, La Jolla, CA, United States). All experiments were done in triplicates in three independent experiments to check the reproducibility.
A general note: Tetrazolium dyes change colour on reduction, which living cells bring about.

Series [8] relates to HepG2 cells. The series is described as follows: Hepatotoxicity, XTT viability after 72 h. Particulars: Homo sapiens, HepG2, 72 h, read-out: Hepatotoxicity IC50, 5.5 mM glucose. The series is classed as cell-based. The protocol: Then, the cell viability (XTT assay) and reactive oxygen species (ROS) induction were evaluated.
as §1, §2, §3

Details of series [9]: method as in Kleteckova et al., 2014. Particulars: induced by endothelin-1, immature rats; ref Kleteckova et al., 2014; cited from earlier work.
A further series addresses T1, GluN1/GluN2B receptors (Rattus norvegicus, UniProt P35439+Q00960).
T1 construct: expressed in transfected cells; host or cells: HEK293
Description: Patch-clamp inhibition of glutamate responses of GluN1/GluN2B receptors in transfected HEK293 cells. The series is classed as cell-based. A general note: The patch-clamp technique gives a direct electrical read-out from membranes.

Data on one compound can be found in PMC6240685, “Strong Inhibitory Effect, Low Cytotoxicity and High Plasma Stability of Steroidal Inhibitors of N-Methyl-D-Aspartate Receptors With C-3 Amide Structural Motif” (Frontiers in Pharmacology, 2018).

T1 sequence (Q00960 27-1482, other chains not shown): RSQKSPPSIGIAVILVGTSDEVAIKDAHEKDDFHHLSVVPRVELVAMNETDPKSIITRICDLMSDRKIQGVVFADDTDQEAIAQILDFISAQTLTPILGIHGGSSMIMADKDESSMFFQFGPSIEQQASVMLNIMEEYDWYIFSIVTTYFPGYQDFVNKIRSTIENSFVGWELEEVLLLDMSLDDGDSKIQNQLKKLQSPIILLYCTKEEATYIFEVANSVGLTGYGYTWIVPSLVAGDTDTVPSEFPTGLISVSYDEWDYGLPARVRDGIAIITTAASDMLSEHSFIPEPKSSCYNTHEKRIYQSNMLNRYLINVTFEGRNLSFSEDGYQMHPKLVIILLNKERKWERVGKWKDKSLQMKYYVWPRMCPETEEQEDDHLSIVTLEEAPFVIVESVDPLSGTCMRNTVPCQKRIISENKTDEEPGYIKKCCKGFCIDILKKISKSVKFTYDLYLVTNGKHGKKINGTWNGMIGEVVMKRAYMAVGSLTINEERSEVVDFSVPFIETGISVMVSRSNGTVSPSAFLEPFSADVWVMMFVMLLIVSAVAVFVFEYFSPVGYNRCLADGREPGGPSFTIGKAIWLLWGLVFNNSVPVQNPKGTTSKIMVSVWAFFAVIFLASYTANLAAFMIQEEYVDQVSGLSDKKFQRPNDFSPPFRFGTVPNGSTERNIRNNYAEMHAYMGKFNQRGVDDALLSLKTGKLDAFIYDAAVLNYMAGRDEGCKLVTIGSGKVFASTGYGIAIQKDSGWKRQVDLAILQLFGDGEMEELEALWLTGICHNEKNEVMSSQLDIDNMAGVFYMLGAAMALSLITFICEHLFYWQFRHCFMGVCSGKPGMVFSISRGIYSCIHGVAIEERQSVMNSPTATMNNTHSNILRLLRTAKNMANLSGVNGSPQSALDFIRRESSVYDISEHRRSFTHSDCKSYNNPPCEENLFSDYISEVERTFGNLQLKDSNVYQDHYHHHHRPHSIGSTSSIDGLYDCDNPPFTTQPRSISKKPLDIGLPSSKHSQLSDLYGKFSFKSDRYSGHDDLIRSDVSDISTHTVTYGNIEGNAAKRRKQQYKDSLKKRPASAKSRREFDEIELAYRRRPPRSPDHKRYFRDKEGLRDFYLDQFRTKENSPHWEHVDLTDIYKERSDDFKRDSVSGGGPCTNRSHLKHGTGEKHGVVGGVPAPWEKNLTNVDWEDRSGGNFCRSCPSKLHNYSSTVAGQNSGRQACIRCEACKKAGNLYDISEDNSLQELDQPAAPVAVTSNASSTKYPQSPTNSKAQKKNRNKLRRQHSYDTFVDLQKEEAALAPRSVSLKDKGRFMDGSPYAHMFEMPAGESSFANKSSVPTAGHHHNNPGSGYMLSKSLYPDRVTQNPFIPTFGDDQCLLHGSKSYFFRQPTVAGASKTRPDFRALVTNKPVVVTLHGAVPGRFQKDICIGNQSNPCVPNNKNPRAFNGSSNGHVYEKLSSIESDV

`CC(=O)C1CCC2C3CCC4CC(OC(=O)C(N)CCC(=O)O)CCC4(C)C3CCC12C` (centres unmarked) [PAG, pregnanolone glutamate, reference compound]: the “behavioral performance in active allothetic place avoidance tasks (AAPA)” value in series [1] is recorded as “improved behavioral performance”. For the same compound, the “neuronal damage in the dentate gyrus and subiculum” value in [1] is “significantly ameliorated neuronal damage”. Besides, the “behaviour in elevated plus maze (EPM) and forced swimming models” value in series [2] is “anxiolytic-like and antidepressant-like properties”. The figures for the fraction remaining at 8 h, 42.1 μg/mL in series [3] and in series [6] were 82% and 94%, respectively. In [4] (rats), the “excitotoxic damage of brain tissue and subsequent behavioral impairment” value was “reduced excitotoxic damage of brain tissue and subsequent behavioral impairment”. Moreover, in [4], the “psychotomimetic symptoms (hyperlocomotion, sensorimotor gating deficit)” value is “does not induce psychotomimetic symptoms”. Besides, the EC50 (usually the midpoint of the concentration-response curve) in the series on HepG2 cells [5] was 80 ± 11 µM. The “Glu/Gal index (fold change)” value with HepG2 cells [7] (24 h, HepG2, index higher than 3 indicates potential mitochondrial toxicity) came to 1.97. Moreover, the IC50 (in general, the concentration at which inhibition is half-maximal) turned out to be 58 ± 7 µM with HepG2 cells [7] (read-out: Mitotoxicity IC50, 10 mM galactose); 115 ± 13 µM in the series on HepG2 cells [7] (read-out: Mitotoxicity IC50, 25 mM glucose); 62 ± 9 µM with HepG2 cells [8]; 51.7 ± 8.6 µM against GluN1/GluN2B receptors. In series [9], the “effect in focal cerebral ischemia model” value is on record as “neuroprotective effect”.
